“And” between values parts separate entries of the source, which are not always exact repeats. Equal entries are not always repeated.
How the values were obtained:
[1] = Relative chemical stability of cyclopropenes measured by 1H-NMR; type: physicochemical; settings: 1H-NMR, CDCl3, stored at −20° C. or room temperature; relative to chain length 1
Text: A variety of analysis methods can be used to analyze the derivatives of Formula 6, since the absorbance of cyclopropenes containing an aryl group can be easily measured in the UV range. It can be confirmed that the chemical stability of the derivatives increases, when the length of chains to link an aryl ring to a cyclopropene ring is 2 or more. […] It is supposed that the stability of cyclopropenes increase due to the fact that π electrons of aryl groups affect π electrons of cyclopropenes.
The following Table 1 summarizes the relative chemical stability of cyclopropenes having a chain length of 2, 3, 4 or 5, based on the chemical stability of cyclopropenes having a chain length of 1. In the case of cyclopropene having a chain length of 1, the structure thereof can be confirmed via ^1H-NMR within one hour following synthesis (degraded to a level of 50% or more within one hour at 30° C.). In the case of cyclopropene having a chain length of zero, synthesis thereof was attempted in accordance with the present invention, but was impossible by a conventional method. Meanwhile, in the case of cyclopropenes having a chain length of 2 or more, the structure thereof can be precisely confirmed by ^1H-NMR as well as ^13C-NMR. The stability of these cyclopropenes was measured by ^1H-NMR while NMR cells (CDCl3) were stored at −20° C. or room temperature. In particular, cyclopropenes having chains of 3 or more were so stable that their half-life reached 5 days or longer at −20° C. or lower. In ^1H-NMR analysis, the stability was evaluated by comparing integral values at 4 to 6.5 ppm (1H) and 0.8 to 0.9 ppm (2H), characteristic peaks of 1-alkylcyclopropenes, using a small amount of 1,1,3,3-tetramethylurea (2.80 ppm) as an internal standard. Furthermore, the stability was also qualitatively evaluated by comparing integral value of the peak newly generated adjacent to the peak of the olefin proton of cyclopropene ring, as a 1-alkylcyclopropene compound is decomposed.

[2] = tested on: tomato; experiment: Experimental Example 3: Efficacy test on tomato for other drugs (emulsion and oil-based formulation); type: in vivo; parameters: key: an area in which the surface of tomato was colored in pink was 10% or less; an area in which the surface of tomato was completely colored in red was 10 to 40%; 2: an area in which the surface of tomato was completely colored in red was 40 to 70%; 3: an area in which the surface of tomato was completely colored in red was 70% or more and the bottom area remained green; 4: an area in which the surface of tomato was most colored in red and only a part of (0 to 10%) the bottom area remained green; 5: the surface of tomato did not entirely color in green; settings: individual tomatoes n=4
Procedure: At this time, the tops of tomatoes most early turned red, while the bottoms thereof most lately turned red. For this reason, in order to accurately evaluate the difference in reddening, the coloring evaluated was based on the area of red color, rather than the color of tomatoes. […] Accordingly, the grade level is proportional to the rate at which the tomatoes ripened.
1.0 mM emulsions and oil-based formulations of four agents, i.e., 1-(2-(4-methoxyphenyl)ethyl)cyclopropene, 1-(3-(4-methoxyphenyl)propyl)cyclopropene, 1-(3-phenoxypropyl)cyclopropene and 1-(4-phenoxybutyl)cyclopropene were prepared in accordance with Examples 1 and 2.
The tomatoes were screened in the same manner as in Experimental Example 1 and divided into 9 groups (n=4), i.e., a non-treated group and 4 emulsion-type agent groups and 4 oil-based formulation-type agent groups. Tomatoes were treated with the previously prepared agent using a household sprayer such that the surface thereof was saturated. The tomatoes were stood at room temperature (25-30° C.) for 3 days and a reddening level thereof was evaluated based on grades of 0 to 5.

[3] = 1.0 mM Emulsion, Day 0, room temperature (25-30° C.)
[4] = 1.0 mM Emulsion, Day 1, room temperature (25-30° C.)
[5] = 1.0 mM Emulsion, Day 2, room temperature (25-30° C.)
[6] = 1.0 mM Emulsion, Day 3, room temperature (25-30° C.)
[7] = 1.0 mM Oil-based formulation, Day 0, room temperature (25-30° C.)
[8] = 1.0 mM Oil-based formulation, Day 1, room temperature (25-30° C.)
[9] = 1.0 mM Oil-based formulation, Day 2, room temperature (25-30° C.)
[10] = 1.0 mM Oil-based formulation, Day 3, room temperature (25-30° C.)

## C1=C(CCCCOc2ccccc2)C1 [(4-Phenoxybutyl), 1-(4-phenoxybutyl)cyclopropene]
[1]
  Stability (relative chemical stability, based on cyclopropenes having a chain length of 1): >>10
[2]; [3]
  reddening level (grade 0 to 5): 0 (an area in which the surface of tomato was colored in pink was 10% or less) (2×) and 1 (an area in which the surface of tomato was completely colored in red was 10 to 40%) and 2 (an area in which the surface of tomato was completely colored in red was 40 to 70%)
[2]; [4]
  reddening level (grade 0 to 5): 0 (an area in which the surface of tomato was colored in pink was 10% or less) (2×) and 2 (an area in which the surface of tomato was completely colored in red was 40 to 70%) (2×)
[2]; [5]
  reddening level (grade 0 to 5): 1 (an area in which the surface of tomato was completely colored in red was 10 to 40%) (2×) and 3 (an area in which the surface of tomato was completely colored in red was 70% or more and the bottom area remained green) (2×)
[2]; [6]
  reddening level (grade 0 to 5): 2 (an area in which the surface of tomato was completely colored in red was 40 to 70%) (2×) and 4 (2×)
[2]; [7]
  reddening level (grade 0 to 5): 0 (an area in which the surface of tomato was colored in pink was 10% or less) (2×) and 1 (an area in which the surface of tomato was completely colored in red was 10 to 40%) and 2 (an area in which the surface of tomato was completely colored in red was 40 to 70%)
[2]; [8]
  reddening level (grade 0 to 5): 0 (an area in which the surface of tomato was colored in pink was 10% or less) (2×) and 1 (an area in which the surface of tomato was completely colored in red was 10 to 40%) and 2 (an area in which the surface of tomato was completely colored in red was 40 to 70%)
[2]; [9]
  reddening level (grade 0 to 5): 0 (an area in which the surface of tomato was colored in pink was 10% or less) and 1 (an area in which the surface of tomato was completely colored in red was 10 to 40%) and 2 (an area in which the surface of tomato was completely colored in red was 40 to 70%) (2×)
[2]; [10]
  reddening level (grade 0 to 5): 1 (an area in which the surface of tomato was completely colored in red was 10 to 40%) (2×) and 3 (an area in which the surface of tomato was completely colored in red was 70% or more and the bottom area remained green) (2×)

## COc1ccc(CCC2=CC2)cc1 [(2-(4-Methoxyphenyl)ethyl), 1-(2-(4-methoxyphenyl)ethyl)cyclopropene]
[1]
  Stability (relative chemical stability, based on cyclopropenes having a chain length of 1): >10
[2]; [3]
  reddening level (grade 0 to 5): 0 (an area in which the surface of tomato was colored in pink was 10% or less) (2×) and 1 (an area in which the surface of tomato was completely colored in red was 10 to 40%) and 2 (an area in which the surface of tomato was completely colored in red was 40 to 70%)
[2]; [4]
  reddening level (grade 0 to 5): 1 (an area in which the surface of tomato was completely colored in red was 10 to 40%) (2×) and 3 (an area in which the surface of tomato was completely colored in red was 70% or more and the bottom area remained green) (2×)
[2]; [5]
  reddening level (grade 0 to 5): 3 (an area in which the surface of tomato was completely colored in red was 70% or more and the bottom area remained green) (2×) and 4 and 5
[2]; [6]
  reddening level (grade 0 to 5): 4 (2×) and 5 (2×)
[2]; [7]
  reddening level (grade 0 to 5): 0 (an area in which the surface of tomato was colored in pink was 10% or less) (2×) and 1 (an area in which the surface of tomato was completely colored in red was 10 to 40%) and 2 (an area in which the surface of tomato was completely colored in red was 40 to 70%)
[2]; [8]
  reddening level (grade 0 to 5): 1 (an area in which the surface of tomato was completely colored in red was 10 to 40%) (2×) and 2 (an area in which the surface of tomato was completely colored in red was 40 to 70%) and 3 (an area in which the surface of tomato was completely colored in red was 70% or more and the bottom area remained green)
[2]; [9]
  reddening level (grade 0 to 5): 2 (an area in which the surface of tomato was completely colored in red was 40 to 70%) (2×) and 3 (an area in which the surface of tomato was completely colored in red was 70% or more and the bottom area remained green) and 4
[2]; [10]
  reddening level (grade 0 to 5): 3 (an area in which the surface of tomato was completely colored in red was 70% or more and the bottom area remained green) (2×) and 4 and 5

## COc1ccc(CCCC2=CC2)cc1 [(3-(4-Methoxyphenyl)propyl), 1-(3-(4-methoxyphenyl)propyl)cyclopropene]
[1]
  Stability (relative chemical stability, based on cyclopropenes having a chain length of 1): >>10
[2]; [3]
  reddening level (grade 0 to 5): 0 (an area in which the surface of tomato was colored in pink was 10% or less) (2×) and 1 (an area in which the surface of tomato was completely colored in red was 10 to 40%) and 2 (an area in which the surface of tomato was completely colored in red was 40 to 70%)
[2]; [4]
  reddening level (grade 0 to 5): 0 (an area in which the surface of tomato was colored in pink was 10% or less) (2×) and 1 (an area in which the surface of tomato was completely colored in red was 10 to 40%) and 2 (an area in which the surface of tomato was completely colored in red was 40 to 70%)
[2]; [5]
  reddening level (grade 0 to 5): 1 (an area in which the surface of tomato was completely colored in red was 10 to 40%) (2×) and 2 (an area in which the surface of tomato was completely colored in red was 40 to 70%) and 3 (an area in which the surface of tomato was completely colored in red was 70% or more and the bottom area remained green)
[2]; [6]
  reddening level (grade 0 to 5): 2 (an area in which the surface of tomato was completely colored in red was 40 to 70%) (2×) and 3 (an area in which the surface of tomato was completely colored in red was 70% or more and the bottom area remained green) and 4
[2]; [7]
  reddening level (grade 0 to 5): 0 (an area in which the surface of tomato was colored in pink was 10% or less) (2×) and 1 (an area in which the surface of tomato was completely colored in red was 10 to 40%) and 2 (an area in which the surface of tomato was completely colored in red was 40 to 70%)
[2]; [8]
  reddening level (grade 0 to 5): 0 (an area in which the surface of tomato was colored in pink was 10% or less) (2×) and 1 (an area in which the surface of tomato was completely colored in red was 10 to 40%) and 2 (an area in which the surface of tomato was completely colored in red was 40 to 70%)
[2]; [9]
  reddening level (grade 0 to 5): 1 (an area in which the surface of tomato was completely colored in red was 10 to 40%) (2×) and 2 (an area in which the surface of tomato was completely colored in red was 40 to 70%) and 3 (an area in which the surface of tomato was completely colored in red was 70% or more and the bottom area remained green)
[2]; [10]
  reddening level (grade 0 to 5): 1 (an area in which the surface of tomato was completely colored in red was 10 to 40%) and 2 (an area in which the surface of tomato was completely colored in red was 40 to 70%) and 3 (an area in which the surface of tomato was completely colored in red was 70% or more and the bottom area remained green) (2×)
